Data taken from ChEMBL document CHEMBL1201862, “PubChem BioAssay data set” (2004).
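Interpolation was linear, between the two tested concentrations surrounding the appropriate level; five concentrations were tested over 48 hours in 96-well plates. Abbreviation: GI50, concentration required for 50% inhibition of growth.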 Active and inactive are the calls of the source. No stated cut-off is given here; in the data, active = GI50 up to about 1.1 µM and inactive = higher.

Experiments:
Assay in all cases: DTP human tumour cell line panel, 48 h
[1] = test system: COLO 205
[2] = test system: SK-OV-3
[3] = test system: MDA-MB-231
[4] = test system: DU-145
[5] = test system: UO-31
[6] = test system: 786-0
[7] = test system: ACHN
[8] = test system: HOP-62
[9] = test system: KM12
[10] = test system: NCI-H23
[11] = test system: SK-MEL-28
[12] = test system: M14
[13] = test system: PC-3
[14] = test system: Malme-3M
[15] = test system: NCI/ADR-RES
[16] = test system: SNB-75
[17] = test system: OVCAR-8
[18] = test system: HT-29
[19] = test system: SF-539
[20] = test system: OVCAR-3

Measured: GI50

Cc1ccc(-c2nc3cc(F)c(N4CCN(C)CC4)cc3[nH]2)cc1
inactive: [1] 15.9 µM | [2] 23.4 µM | [3] 71.3 µM | [4] 31.1 µM | [5] 13.9 µM | [6] 17.6 µM | [7] 21.1 µM | [8] 15.8 µM | [9] 14 µM | [10] 22.2 µM | [11] 26.2 µM | [12] 16.7 µM | [13] 24.1 µM | [14] 15.3 µM | [15] 28.8 µM

NCCCN(CCCCN(CCCN)Cc1ccc2ccccc2c1)Cc1ccc2ccccc2c1
inactive: [1] 2.55 µM | [2] 1.86 µM | [16] 1.5 µM | [3] 3.18 µM | [4] 2.22 µM | [5] 2.32 µM | [17] 1.82 µM | [6] 1.62 µM | [7] 1.9 µM | [9] 1.86 µM | [18] 1.7 µM | [10] 1.85 µM | [11] 1.92 µM | [12] 1.97 µM | [19] 1.8 µM | [14] 1.76 µM | [15] 18.7 µM

CC1=CC(O)(c2ccccc2)C(N2CCOCC2)N1O (configuration not stated)
inactive: [1] > 100 µM | [2] > 100 µM | [3] > 100 µM | [5] > 100 µM | [17] > 100 µM | [6] > 100 µM | [7] > 100 µM | [8] > 100 µM | [9] > 100 µM | [18] > 100 µM | [10] > 100 µM | [20] > 100 µM | [11] > 100 µM | [12] > 100 µM | [19] > 100 µM | [13] > 100 µM | [14] > 100 µM | [15] > 100 µM

O=C1/C(=C/c2cccc([N+](=O)[O-])c2)N=C(c2ccccc2)N1c1nc2c(Cl)cc(Cl)cc2s1
inactive: [1] 31.8 µM | [2] 31.2 µM | [3] 29.4 µM | [4] 27 µM | [5] 21.8 µM | [17] 22 µM | [6] 31.4 µM | [7] 27.7 µM | [8] 19.7 µM | [9] 19.9 µM | [18] 19.1 µM | [20] 17.1 µM | [11] 40.7 µM | [12] 21.8 µM | [19] 22.8 µM | [13] 24 µM | [15] 28.4 µM
